Patent publication US20260285924A1, “PEPTIDE THERAPEUTICS” (priority 2023, published 2026)

Tests used:
[1] = system: A375-WT; experiment: Pan-Cancer PepTile/PiTile fitness screen (lentiviral 40-mer peptide library, NGS abundance); format: cell-based, human; parameters: key: enrichment of each peptide's NGS abundance, early day vs Day 14; conditions: for A375-WT Fitness Score: Pan-Cancer library, peptide enrichment day 14 vs day 0
From the text: FIGS. 13A-13D show Pan-Cancer PiTile Workflow. (A) The Pan-Cancer peptide library is composed of 1081 proteins tiled into 40-mer peptides at every 6 amino acids of the parental protein. The DNA-encoded library is cloned into lentiviral vectors and packaged into lentivirus. (B) A375 cell line was transduced with the Pan-Cancer PiTile library. Genomic DNA was then harvested at Day2 and Day 14 post-transduction and cell populations abundance expressing the different peptides were quantified using Next-Generation Sequencing (NGS). Peptide fitness score was then calculated by the abundance of each peptide at Day2 versus Day 14. Then the fitness signal is mapped over the original amino acid positions of the derived protein. (C) Coverage of the plasmid Pan-Cancer library and peptide-amplicons from Day2 and Day 14 replicated was determined by NGS. (D) Dot plot of the experimental result obtain from screening the Pan-Cancer library in A375 cell line.
(§1) A peptide tilling screen was performed in A375 similarly to a screen done in MDA-MB-231 (FIG. 1) but with a different lentiviral library. The library (Pan-Cancer library) is composed of 1020 genes tiled every 6 amino acids into 40-mer amino acid long peptides. The gene selection was based on their implication in oncogenesis either being as oncogenes or tumor suppressors. The list was built using recent literature that identified new cancer drivers as well as databases such as Uniprot keywords (KW-0656: Proto-oncogene, KW-0043: Tumor suppressor), and Gene Ontology terms (GO1900117: Apoptosis, GO1901979: Cell cycle checkpoint) (FIG. 2). Aside from Human genes, a list of viral genes was also included (KW-1121: Modulation of host cell cycle by virus) that play roles in high jacking cell cycle progression and thus in oncogenesis (FIG. 2).
(§2) The model of study is melanoma, and this disease is stratified into 4 molecular subtypes, BRAF mutants, NRAS mutants, KIT amplification, NF1 mutations (FIG. 3A). The most prominent mutations found in patient affected with metastatic melanomas are BRAF^V600E and NRAS^Q61K (FIG. 3B). RAS play a key role in oncogenesis and resistance to treatments. Indeed, RAS activating mutations is found in ~20% of all human cancers and secondary NRAS mutation leads to acquired resistance to BRAF targeted therapy such as vemurafenib. Thus, the screen was performed in an A375 cell line model which derived from human BRAF^V600E melanoma as well as an engineered A375 transduced with HA-NRAS^Q61K (FIG. 4A, B). Both cell lines grow at a similar rate but the A375-NRAS^Q61K display more than 10-fold resistance to vemurafenib treatment compared to parental A375 (FIG. 4C, D).
(§3) These cells were transduced with the Pan-Cancer library at a low multiplicity of infection (MOI=0.1-0.3). Then, genomic DNA was extracted at day 0 and day 14 post-transduction to quantify the abundance of peptide for each temporal conditions using Next-generation sequencing. Each experimental replicates were deep sequenced with at least 150 million reads and show a coverage between 82-90% of the initial Pan-Cancer Peptide library (FIG. 5). Then, for each individual peptides a cellular fitness score was calculated based on their enrichment between day 0 and day 14. 8090 peptides negatively affecting growth of A375-WT were identified and 8153 peptides for the A375-NRAS^Q61K cell line (FIG. 6). […] Those common hits are found to be tiles from ~100 genes of the Pan-Cancer gene list and show a substantial biological function clustering.
We built a DNA-encoded peptide library composed of all known Human oncogenes and Tumor Suppressors that we fragmented in 40 amino acid long peptides, the Pan-Cancer library. Using lentiviral expression system, we transduced the Pan-Cancer library in A375 cell line. After 14 days of growth, the frequency of each peptide is measured by NGS and this reveal which peptides affect cell fitness. […]

[2] = system: A375-NRAS^Q61K; experiment: Pan-Cancer PepTile fitness screen (lentiviral 40-mer peptide library, NGS abundance); format: cell-based, human; conditions: peptide enrichment day 14 vs day 0
Method: as §1, §2, §3

Substance | A375-WT Fitness Score [1] | A375-NRAS Fitness Score [2] | Fitness score ([1]; PanCancer Peptide Table (Table 3), lentivirally expressed 40-mer peptide tile) | Fitness score ([1]; PanCancer Peptide Table, 40-mer peptide tile expressed from lentiviral library) | Fitness score ([1]; PanCancer Peptide Table (Table 3), lentivirally expressed 40-mer peptide tile, negative = depleted)
ELF4_39: 40-mer peptide tile of ELF4, AA start position 228, ETS domain | −2.44 | −1.35 |  |  | 
BRAF_64: 40-mer peptide tile of BRAF, AA start position 378, CR2 domain (NIDDLIRDQGFRGDGGSTTGLSATPPASLPGSLTNVKALQ; UniProt P15056 378-417, looked up, fragment) | −2.28 | −2.72 |  |  | 
CDKN2B_4: 40-mer peptide tile of CDKN2B, AA start position 18, ANK domain (LASAAARGLVEKVRQLLEAGADPNGVNRFGRRAIQVMMMG; UniProt P42772 18-57, looked up, fragment) | 0.36 | −3.63 |  |  | 
CTNNB1_30: 40-mer peptide tile of CTNNB1, AA start position 174, Armadillo domain (MVHQLSKKEASRHAIMRSPQMVSAIVRTMQNTNDVETARC; UniProt P35222 174-213, looked up, fragment) | −3.29 | −0.85 | −3.30 |  | 
MAD1L1_78: 40-mer peptide tile of MAD1L1, AA start position 462, Coiled Coil domain (ELGGQKQRADMLEMELKMLKSQSSSAEQSFLFSREEADTL; UniProt Q9Y6D9 462-501, looked up, fragment) | −4.42 | −3.52 |  |  | 
PIK3CA_38: 40-mer peptide tile of PIK3CA, AA start position 222, RBD (AEAIRKKTRSMLLSSEQLKLCVLEYQGKYILKVCGCDEYF; UniProt P42336 222-261, looked up, fragment) | −2.72 | −0.85 |  |  | 
AXIN1_22: 40-mer peptide tile of AXIN1, AA start position 126, RGS domain (KLEPCDSNEEKRLKLARAIYRKYILDNNGIVSRQTKPATK; RGS domain peptide tile; UniProt O15169 126-165, looked up, fragment) | −2.88 | −0.54 |  |  | 
SMC3_124: 40-mer peptide tile of SMC3, AA start position 738, Coiled Coil domain (EMKMLKEKRQQSEKTFMPKQRSLQSLEASLHAMESTRESL; UniProt Q9UQE7 738-777, looked up, fragment) | −3.08 | 0.13 |  | −3.09 | 
EP300_99: 40-mer peptide tile of EP300, AA start position 588, KIX domain | −3.20 | 0.86 |  |  | 
FLCN_43: 40-mer peptide tile of FLCN, AA start position 252, Longin domain (ACLHTSFAWLLKACGSRLTEKLLEGAPTEDTLVQMEKLAD; UniProt Q8NFG4 252-291, looked up, fragment) | −1.76 | −1.99 |  |  | 
DOCK4_114: 40-mer peptide tile of DOCK4, AA start position 678, Armadillo domain (LIKVLKWYVDRITEAERQEHIQEVLKAQEYIFKYIVQSRR; UniProt Q8N1I0 678-717, looked up, fragment) | 0.87 | −3.45 |  |  | 
FER_38: 40-mer peptide tile of FER, AA start position 222, F-BAR domain (LKGIFDEYSQITSLVTEEIVNVHKEIQMSVEQIDPSTEYN; UniProt P16591 222-261, looked up, fragment) | −2.21 | −1.48 |  |  | 
SMARCA4_257: 40-mer peptide tile of SMARCA4, AA start position 1536, Bromodomain (AQTFNLEGSLIYEDSIVLQSVFTSVRQKIEKEDDSEGEES; UniProt P51532 1536-1575, looked up, fragment) | −4.98 | −0.54 |  |  | 
FZD3_55: 40-mer peptide tile of FZD3, AA start position 324, Transmembrane domain (IEKKALLFHASAWGIPGTLTIILLAMNKIEGDNISGVCFV; UniProt Q9NPG1 324-363, looked up, fragment) | −3.21 | −3.27 |  |  | 
ARID2_13: 40-mer peptide tile of ARID2, AA start position 72, ARID domain (IVEEFNFPRSCSNAAFALKQYYLRYLEKYEKVHHFGEDDD; UniProt Q68CP9 72-111, looked up, fragment) | −2.41 | 0.85 |  |  | 
MTOR_42: 40-mer peptide tile of MTOR, AA start position 246, HEAT domain | −3.36 | 1.01 |  |  | −3.37
SUZ12_23: 40-mer peptide tile of SUZ12, AA start position 132, WDB1 domain (FKVDDMLSKVEKMKGEQESHSLSAHLQLTFTGFFHKNDKP; UniProt Q15022 132-171, looked up, fragment) | −2.12 | −0.27 |  |  | 
